Experimental data as given in patent publication US12559492B2, “BRAF degraders” (C4 Therapeutics, Inc., priority 2020, dated 2026).
Where a name gives a salt, the structure may show the parent alone.

Target: BRAF^V600E protein (Homo sapiens, UniProt P15056, V600E)
Assay: HiBiT cellular BRAF V600E degradation assay
Format: cell-based
Conditions: 24 h incubation; for DC50: A375.10 cells (HiBiT tag knocked in at N-terminal of BRAF V600E), concentration at which 50% of total cellular BRAF V600E is degraded; for Emax: read-out: HiBit 24 h Emax
[1] = A375.10 cells, Emax = amount of residual protein remaining in the cell after compound treatment

BRAF^V600E protein, sequence (P15056 whole entry V600E): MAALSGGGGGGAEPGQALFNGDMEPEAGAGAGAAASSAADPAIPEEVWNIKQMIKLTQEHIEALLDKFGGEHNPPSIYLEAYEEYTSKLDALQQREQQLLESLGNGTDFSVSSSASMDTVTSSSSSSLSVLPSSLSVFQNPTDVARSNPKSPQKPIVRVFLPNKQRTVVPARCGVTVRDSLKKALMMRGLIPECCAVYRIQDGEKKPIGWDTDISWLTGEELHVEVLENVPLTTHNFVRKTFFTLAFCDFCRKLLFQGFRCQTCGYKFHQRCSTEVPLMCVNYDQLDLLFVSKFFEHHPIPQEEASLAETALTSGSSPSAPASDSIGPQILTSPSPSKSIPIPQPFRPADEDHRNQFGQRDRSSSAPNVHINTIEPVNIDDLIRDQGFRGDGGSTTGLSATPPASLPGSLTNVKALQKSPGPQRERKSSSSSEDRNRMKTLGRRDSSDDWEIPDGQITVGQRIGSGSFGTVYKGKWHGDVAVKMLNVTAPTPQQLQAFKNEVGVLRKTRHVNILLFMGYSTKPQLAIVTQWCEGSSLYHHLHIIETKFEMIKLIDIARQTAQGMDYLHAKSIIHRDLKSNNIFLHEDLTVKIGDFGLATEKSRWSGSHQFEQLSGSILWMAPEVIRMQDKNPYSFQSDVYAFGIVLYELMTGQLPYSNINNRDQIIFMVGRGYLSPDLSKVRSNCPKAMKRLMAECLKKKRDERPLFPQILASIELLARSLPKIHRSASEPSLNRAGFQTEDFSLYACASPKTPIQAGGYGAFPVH

| Structure (SMILES) | DC50 [nM] | HiBit 24 h Emax [1] [%] | Emax [1] [%] |
| --- | --- | --- | --- |
| CCN(C)S(=O)(=O)Nc1ccc(F)c(C(=O)c2c[nH]c3ncc(-c4cnc(N5CCN(C(=O)CC6CCC(c7ccc(NC8CCC(=O)NC8=O)cc7)CC6)CC5)nc4)cc23)c1F (single isomer, unassigned) [Example 36, 5-[2-[4-[2-[4-[4-[(2,6-dioxo-3-piperidyl)amino]phenyl]cyclohexyl]acetyl]piperazin-1-yl]pyrimidin-5-yl]-3-[3-[[ethyl(methyl)sulfamoyl]amino]-2,6-difluoro-benzoyl]-1H-pyrrolo[2,3-b]pyridine] | 21 | 16.12 |  |
| CCN(C)S(=O)(=O)Nc1ccc(F)c(C(=O)c2c[nH]c3ncc(-c4ccc(N5CCN(CCC6CCN(c7ccc(NC8CCC(=O)NC8=O)cc7)CC6)C(=O)C5)nc4)cc23)c1F (centres unmarked) [Example 148, 5-[6-[4-[2-[1-[4-[(2,6-dioxo-3-piperidyl)amino]phenyl]-4-piperidyl]ethyl]-3-oxo-piperazin-1-yl]-3-pyridyl]-3-[3-[[ethyl(methyl)sulfamoyl]amino]-2,6-difluoro-benzoyl]-1H-pyrrolo[2,3-b]pyridine] | 19.8 |  | 13.9 |
| CCN(C)S(=O)(=O)Nc1ccc(F)c(C(=O)c2c[nH]c3ncc(-c4ccc(N5CCN(C(=O)CC6(O)CCN(c7ccc8c(N9CCC(=O)NC9=O)nn(C)c8c7)CC6)CC5)cc4)cc23)c1F [Example 202, 3-(2,4-dioxohexahydropyrimidin-1-yl)-6-[4-[2-[4-[4-[3-[3-[[ethyl(methyl)sulfamoyl]amino]-2,6-difluoro-benzoyl]-1H-pyrrolo[2,3-b]pyridin-5-yl]phenyl]piperazin-1-yl]-2-oxo-ethyl]-4-hydroxy-1-piperidyl]-1-methyl-indazole] | 2.1 |  | 7.44 |
| CCN(C)S(=O)(=O)Nc1ccc(F)c(C(=O)c2c[nH]c3ncc(-c4ccc(CN5CCN(C(=O)N6CCN(c7ccc(OC8CCC(=O)NC8=O)cc7)CC6)CC5)cc4)cc23)c1F (centres unmarked) [Example A4, 5-[4-[[4-[4-[4-(2,6-Dioxopiperidin-3-yl)oxyphenyl]piperazine-1-carbonyl]piperazin-1-yl]methyl]phenyl]-3-[3-[[ethyl(methyl)sulfamoyl]amino]-2,6-difluorobenzoyl]-1H-pyrrolo[2,3-b]pyridine] | 83 |  | 31 |
| O=C1CCC(Nc2ccc(N3CCN(CC(=O)N4CCN(c5ccc(-c6cnc7[nH]cc(C(=O)c8c(F)ccc(NS(=O)(=O)N9CCCC9)c8F)c7c6)cc5)CC4)CC3)cc2)C(=O)N1 (centres unmarked) [Example A51, N-[3-[5-[4-[4-[2-[4-[4-[(2,6-Dioxopiperidin-3-yl)amino]phenyl]piperazin-1-yl]acetyl]piperazin-1-yl]phenyl]-1H-pyrrolo[2,3-b]pyridine-3-carbonyl]-2,4-difluorophenyl]pyrrolidine-1-sulfonamide] | 4 |  | 14 |
| CCN(C)S(=O)(=O)Nc1ccc(F)c(C(=O)c2c[nH]c3ncc(-c4ccc(N5CCN(C(=O)CC6(O)CCN(c7ccc(N[C@H]8CCC(=O)NC8=O)cc7F)CC6)CC5)cc4)cc23)c1F [Example 179, 5-[4-[4-[2-[1-[4-[[(3S)-2,6-dioxo-3-piperidyl]amino]-2-fluoro-phenyl]-4-hydroxy-4-piperidyl]acetyl]piperazin-1-yl]phenyl]-3-[3-[[ethyl(methyl)sulfamoyl]amino]-2,6-difluoro-benzoyl]-1H-pyrrolo[2,3-b]pyridine] | 5.91 |  | 8.35 |
| CCC(C)S(=O)(=O)Nc1ccc(F)c(C(=O)c2c[nH]c3ncc(-c4ccc(N5CCN(C(=O)CN6CCC(c7ccc(OC8CCC(=O)NC8=O)cc7)CC6)CC5)nc4)cc23)c1F (centres unmarked) [Example A28, N-[3-[5-[6-[4-[2-[4-[4-(2,6-Dioxopiperidin-3-yl)oxyphenyl]piperidin-1-yl]acetyl]piperazin-1-yl]pyridin-3-yl]-1H-pyrrolo[2,3-b]pyridine-3-carbonyl]-2,4-difluorophenyl]butane-2-sulfonamide] | 12 |  | 14 |
| CCN(C)S(=O)(=O)Nc1ccc(F)c(C(=O)c2c[nH]c3ncc(-c4cnc(N5CCC(NCC(=O)N6CCC(c7ccc(NC8CCC(=O)NC8=O)cc7)CC6)CC5)nc4)cc23)c1F (centres unmarked) [Example A100, 5-[2-[4-[[2-[4-[4-[(2,6-Dioxopiperidin-3-yl)amino]phenyl]piperidin-1-yl]-2-oxoethyl]amino]piperidin-1-yl]pyrimidin-5-yl]-3-[3-[[ethyl(methyl)sulfamoyl]amino]-2,6-difluorobenzoyl]-1H-pyrrolo[2,3-b]pyridine;hydrochloride] | 10 |  | 11 |
| CCN(C)S(=O)(=O)Nc1ccc(F)c(C(=O)c2c[nH]c3ncc(-c4ccc(N5CCN(C(=O)CN(C)C(=O)Cc6ccc(NC7CCC(=O)NC7=O)cc6)CC5)nc4)cc23)c1F (centres unmarked) [Example A39, 2-[4-[(2,6-dioxopiperidin-3-yl)amino]phenyl]-N-[2-[4-[5-[3-[3-[[ethyl(methyl)sulfamoyl]amino]-2,6-difluorobenzoyl]-1H-pyrrolo[2,3-b]pyridin-5-yl]pyridin-2-yl]piperazin-1-yl]-2-oxoethyl]-N-methylacetamide] | 35 |  | 18 |
| CCN(C)S(=O)(=O)Nc1cccc(C(=O)c2c[nH]c3ncc(-c4cnc(N5CCN(C(=O)CC6(O)CCN(c7ccc(NC8CCC(=O)NC8=O)cc7F)C6)CC5)nc4)cc23)c1F (centres unmarked) [Example 102, 5-[2-[4-[2-[1-[4-[(2,6-dioxo-3-piperidyl)amino]-2-fluoro-phenyl]-3-hydroxy-pyrrolidin-3-yl]acetyl]piperazin-1-yl]pyrimidin-5-yl]-3-[3-[[ethyl(methyl)sulfamoyl]amino]-2-fluoro-benzoyl]-1H-pyrrolo[2,3-b]pyridine] | 6.88 |  | 8.28 |
| CCN(C)S(=O)(=O)Nc1ccc(F)c(C(=O)c2c[nH]c3ncc(-c4ccc(N5CCN(C(=O)CC6(O)CCN(c7ccc(NC8CCC(=O)NC8=O)cc7)CC6)CC5)cc4)cc23)c1F (centres unmarked) [Example 86, 5-[4-[4-[2-[1-[4-[(2,6-dioxo-3-piperidyl)amino]phenyl]-4-hydroxy-4-piperidyl]acetyl]piperazin-1-yl]phenyl]-3-[3-[[ethyl(methyl)sulfamoyl]amino]-2,6-difluoro-benzoyl]-1H-pyrrolo[2,3-b]pyridine] | 4.29 |  | 11.8 |
| CCN(C)S(=O)(=O)Nc1ccc(F)c(C(=O)c2c[nH]c3ncc(-c4ccc(N5CCN(C(=O)CC6(O)CCN(c7ccc(N8CCC(=O)NC8=O)cc7Cl)CC6)CC5)nc4)cc23)c1F [Example 214, 5-[6-[4-[2-[1-[2-chloro-4-(2,4-dioxohexahydropyrimidin-1-yl)phenyl]-4-hydroxy-4-piperidyl]acetyl]piperazin-1-yl]-3-pyridyl]-3-[3-[[ethyl(methyl)sulfamoyl]amino]-2,6-difluoro-benzoyl]-1H-pyrrolo[2,3-b]pyridine] | 0.65 |  | 5.48 |
| CCN(C)S(=O)(=O)Nc1cccc(C(=O)c2c[nH]c3ncc(-c4cnc(N5CCN(C(=O)CC6(O)CCN(c7ccc(NC8CCC(=O)NC8=O)cc7Cl)CC6)CC5)nc4)cc23)c1F (centres unmarked) [Example 103, 5-[2-[4-[2-[1-[2-chloro-4-[(2,6-dioxo-3-piperidyl)amino]phenyl]-4-hydroxy-4-piperidyl]acetyl]piperazin-1-yl]pyrimidin-5-yl]-3-[3-[[ethyl(methyl)sulfamoyl]amino]-2-fluoro-benzoyl]-1H-pyrrolo[2,3-b]pyridine] | 3.04 |  | 8.98 |
